Test [1] has as its target T1, human orexin-2 receptor (Homo sapiens, UniProt O43614).
T1 construct: expressed in transfected cells; host or cells: CHO cells (G418 selection)
T1 sequence (O43614 1-444): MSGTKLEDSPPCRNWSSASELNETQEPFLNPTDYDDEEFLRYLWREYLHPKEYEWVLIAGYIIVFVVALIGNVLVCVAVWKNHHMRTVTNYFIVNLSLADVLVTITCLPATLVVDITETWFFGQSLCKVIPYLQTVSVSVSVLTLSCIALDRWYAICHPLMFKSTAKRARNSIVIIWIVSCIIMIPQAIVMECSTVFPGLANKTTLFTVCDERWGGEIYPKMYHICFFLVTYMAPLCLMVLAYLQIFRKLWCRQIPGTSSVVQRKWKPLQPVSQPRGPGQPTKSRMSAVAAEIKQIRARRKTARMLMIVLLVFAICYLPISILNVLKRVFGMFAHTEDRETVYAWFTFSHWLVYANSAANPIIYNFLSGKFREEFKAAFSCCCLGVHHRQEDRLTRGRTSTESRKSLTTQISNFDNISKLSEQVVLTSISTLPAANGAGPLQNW
Put plainly: Intracellular calcium measurement (FLIPR), orexin-2 receptor antagonism. The test is classed as cell-based. The settings on record: CHO cells expressing human orexin-2 receptor, 3 nM orexin-A agonist; for inhibition at 1 µM: 1 uM compound, read-out: % Inhibition of OX2R @ 1 uM compound. The protocol:
(§1) Antagonistic activities on both orexin receptors have been measured for each example compound using the following procedure:
(§2) In Vitro Assay: Intracellular Calcium Measurements:
(§3) Chinese hamster ovary (CHO) cells expressing the human orexin-1 receptor and the human orexin-2 receptor, respectively, are grown in culture medium (Ham F-12 with L-Glutamine) containing 300 μg/mL G418, 100 U/mL penicillin, 100 μg/mL streptomycin and 10% heat inactivated fetal calf serum (FCS). The cells are seeded at 20′000 cells/well into 384-well black clear bottom sterile plates (Greiner). The seeded plates are incubated overnight at 37° C. in 5% CO2. Human orexin-A as an agonist is prepared as 1 mM stock solution in MeOH:water (1:1), diluted in HBSS containing 0.1% bovine serum albumin (BSA), NaHCO 3: 0.375 g/L and 20 mM HEPES for use in the assay at a final concentration of 3 nM.
(§4) Antagonists are prepared as 10 mM stock solution in DMSO, then diluted in 384-well plates using DMSO followed by a transfer of the dilutions into in HBSS containing 0.1% bovine serum albumin (BSA), NaHCO 3: 0.375 g/L and 20 mM HEPES. On the day of the assay, 50 μL of staining buffer (HBSS containing 1% FCS, 20 mM HEPES, NaHCO 3: 0.375 g/L, 5 mM probenecid (Sigma) and 3 μM of the fluorescent calcium indicator fluo-4 AM (1 mM stock solution in DMSO, containing 10% pluronic) is added to each well. The 384-well cell-plates are incubated for 50 min at 37° C. in 5% CO2 followed by equilibration at RT for 30 min before measurement.
(§5) Within the Fluorescent Imaging Plate Reader (FLIPR Tetra, Molecular Devices), antagonists are added to the plate in a volume of 10 μL/well, incubated for 120 min and finally 10 μL/well of agonist is added. Fluorescence is measured for each well at 1 second intervals, and the height of each fluorescence peak is compared to the height of the fluorescence peak induced by 3 nM orexin-A with vehicle in place of antagonist. The IC50 value (the concentration of compound needed to inhibit 50% of the agonistic response) is determined and may be normalized using the obtained IC50 value of an on-plate reference compound. Optimized conditions were achieved by adjustment of pipetting speed and cell splitting regime. The calculated IC50 values may fluctuate depending on the daily cellular assay performance. Fluctuations of this kind are known to those skilled in the art. In the case where IC50 values have been determined several times for the same compound, the geometric mean has been given.
A general note: Calcium flux is commonly read through the fluorescence of an indicator in the cells.

The target in test [2] is T2, human orexin-1 receptor (Homo sapiens, UniProt O43613).
T2 construct: expressed in transfected cells; host or cells: CHO cells (G418 selection)
T2 sequence (O43613 1-425): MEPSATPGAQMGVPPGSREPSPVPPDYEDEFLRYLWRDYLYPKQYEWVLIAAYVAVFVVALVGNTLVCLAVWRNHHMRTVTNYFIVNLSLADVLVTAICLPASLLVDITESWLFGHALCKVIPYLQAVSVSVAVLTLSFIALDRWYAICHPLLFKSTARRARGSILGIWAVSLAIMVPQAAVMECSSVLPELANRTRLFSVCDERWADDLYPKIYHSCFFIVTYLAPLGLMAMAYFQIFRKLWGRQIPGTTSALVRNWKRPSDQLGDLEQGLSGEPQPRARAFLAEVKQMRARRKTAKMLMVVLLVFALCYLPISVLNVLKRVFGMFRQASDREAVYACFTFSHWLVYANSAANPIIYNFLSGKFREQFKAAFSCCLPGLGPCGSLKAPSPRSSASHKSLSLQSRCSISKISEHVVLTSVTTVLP
Put plainly: Intracellular calcium measurement (FLIPR), orexin-1 receptor antagonism. The test is classed as cell-based. The settings on record: CHO cells expressing human orexin-1 receptor, 3 nM orexin-A agonist; for inhibition at 1 µM: 1 uM compound, read-out: % Inhibition of OX1R @ 1 uM compound; for IC50: read-out: IC50 OX1R; for Kb: read-out: Kb OX1R. As for the experimental part:
as §1, §2, §3, §4, §5

Data on 18 compounds can be found in patent US12187738B2, “Imidazolo derivatives, compositions and methods as orexin antagonists” (HAGER BIOSCIENCES, LLC, priority 2019, dated 2025).

Structures are written as SMILES.

Turning to `O=C(c1c(-c2ccccc2)nc2occn12)N1CCC[C@H]1Cn1ccc(-c2ccccc2)n1` [Example 1], the figures for the inhibition at 1 µM in test [1] and in test [2] were 26.6% and 70.4%, respectively.

Regarding `O=C(c1c(-c2ccccc2)nc2sccn12)N1CCC[C@H]1Cn1ccc(-c2ccccc2)n1` [Example 2], the inhibition at 1 µM in test [1] was found to be 39.9%; in test [2], 83%.

`O=C(c1c(-c2ccccc2)nc2occn12)N1CCC[C@H]1CNc1ccc(C(F)(F)F)cn1` [Example 3]: the inhibition at 1 µM in test [1] is 14.4%; in test [2] it was 45.8%.

For `O=C(c1c(-c2ccccc2)nc2sccn12)N1CCC[C@H]1CNc1ccc(C(F)(F)F)cn1` [Example 4], the inhibition at 1 µM was 25.4% in test [1] and 61.1% in test [2].

Turning to `CCc1cnc(NC[C@@H]2CCCN2C(=O)c2c(-c3ccccc3)nc3occn23)nc1` [Example 5], the inhibition at 1 µM in test [1] was determined as 3.3%; in test [2] it was 0.5%.

For the compound `CCc1cnc(NC[C@@H]2CCCN2C(=O)c2c(-c3ccccc3)nc3sccn23)nc1` [Example 6], the values for the inhibition at 1 µM in test [1] and in test [2] were 16.2% and -5.39%, respectively.

Consider `CCc1cnc(NC[C@@H]2[C@H](C)CCCN2C(=O)c2c(-c3ccccc3)nc3occn23)nc1` [Example 7], for which the inhibition at 1 µM in test [1] was 6.75%; in test [2], 48.1%.

For the compound `C[C@@H]1CCCN(C(=O)c2c(-c3ccccc3)nc3occn23)[C@@H]1CNc1ccc(C(F)(F)F)cn1` [Example 8], the inhibition at 1 µM in test [1] is 1.8%. Further, in test [2], the inhibition at 1 µM was determined as 81.6%, the IC50 is 11 nM and the Kb stood at 2 nM.

Regarding `C[C@@H]1CCCN(C(=O)c2c(-c3ccccc3)nc3sccn23)[C@@H]1CNc1ccc(C(F)(F)F)cn1` [Example 9], the inhibition at 1 µM in test [1] amounted to 10.7%. In addition, in test [2], the inhibition at 1 µM is 81.4%, the IC50 is 18 nM and the Kb is 4 nM.

As to `CCc1cnc(NC[C@@H]2[C@H](C)CCCN2C(=O)c2c(-c3ccccc3)nc3sccn23)nc1` [Example 10], the inhibition at 1 µM in test [1] was found to be 9.37%. Further, in test [2], the inhibition at 1 µM amounted to 63.5%, the IC50 came to 270 nM and the Kb turned out to be 57 nM.

On to `CCc1cnc(NC[C@@H]2CCCN2C(=O)c2c(-c3ccc(F)cc3)nc3sc(C)nn23)nc1` [Example 11], for which the inhibition at 1 µM was 12% in test [1] and 16.1% in test [2].

Regarding `Cc1nn2c(C(=O)N3CCC[C@@H](C)[C@H]3CNc3ccc(C(F)(F)F)cn3)c(-c3ccc(F)cc3)nc2s1` [Example 12], the inhibition at 1 µM in test [1] turned out to be 11.8%. In addition, in test [2], the inhibition at 1 µM amounted to 79.8%, the half-maximal inhibitory concentration (IC50) amounted to 13 nM and the Kb was found to be 3 nM.

Regarding `O=C(c1c(-c2ccccc2F)nc2sccn12)N1CCC[C@H]1CNc1ccc(C(F)(F)F)cn1` [Example 13], the inhibition at 1 µM in test [1] stood at 29%; in test [2], 62.8%.

Consider `O=C(c1c(-c2ccccc2F)nc2sccn12)N1CCC[C@H]1Cn1ccc(-c2ccccc2)n1` [Example 14], for which the results for the inhibition at 1 µM in test [1] and in test [2] were 57% and 87.4%, respectively. Further, the values for the 50% inhibitory concentration (IC50) in test [1] (read-out: IC50 OX2R) and in test [2] were 1750 nM and 12 nM, respectively. Moreover, the antagonist dissociation constant (Kb) in test [1] (read-out: Kb OX2R) amounted to 241 nM; in test [2], 3 nM.

Regarding `CCc1cnc(NC[C@@H]2CCCN2C(=O)c2c(-c3ccccc3F)nc3sccn23)nc1` [Example 15], the inhibition at 1 µM turned out to be 15.2% in test [1] and 25.1% in test [2].

On to `O=C(c1c(-c2ccc(F)cc2)nc2scnn12)N1CCC[C@H]1Cn1ccc(-c2ccccc2)n1` [Example 16], for which the inhibition at 1 µM in test [1] amounted to 34.4%. In test [2], the inhibition at 1 µM came to 90.3%, the IC50 turned out to be 7 nM and the antagonist dissociation constant (Kb) was found to be 1.5 nM.

With `CCc1cnc(OC[C@@H]2CCCN2C(=O)c2c(-c3ccccc3)nc3occn23)nc1` [Example 17], the inhibition at 1 µM in test [1] was found to be 8.06%; in test [2], 4.5%.

As for `O=C(c1c(-c2ccccc2)nc2occn12)N1CCC[C@H]1COc1ccc(C(F)(F)F)cn1` [Example 18], the figures for the inhibition at 1 µM in test [1] and in test [2] were 14.9% and 37.1%, respectively.

Usually inhibition stands for the drop in the measured response relative to a control, in per cent. A word on the IC50: it is the concentration needed to halve the response being measured. In general, Kb refers to the equilibrium dissociation constant of an antagonist, usually derived from a functional assay.
